Assay results reported in ChEMBL document CHEMBL1139589, “In vitro antiproliferative activity against human colon cancer cell lines of representative 4-thiazolidinones. Part I” (Bioorg Med Chem Lett, 2005).

Columns and labels:
[1] = molecular target: T1, Prostaglandin G/H synthase 1 (Homo sapiens, UniProt P23219); details: at 10 µM
Description: Percentage inhibition activity at a concentration of 10 uM against cyclooxygenase 1 with the compound dissolved in DMSO

[2] = molecular target: T2, Prostaglandin G/H synthase 2 (Homo sapiens) (UniProt P35354); details: at 10 µM
T2 sequence (whole entry): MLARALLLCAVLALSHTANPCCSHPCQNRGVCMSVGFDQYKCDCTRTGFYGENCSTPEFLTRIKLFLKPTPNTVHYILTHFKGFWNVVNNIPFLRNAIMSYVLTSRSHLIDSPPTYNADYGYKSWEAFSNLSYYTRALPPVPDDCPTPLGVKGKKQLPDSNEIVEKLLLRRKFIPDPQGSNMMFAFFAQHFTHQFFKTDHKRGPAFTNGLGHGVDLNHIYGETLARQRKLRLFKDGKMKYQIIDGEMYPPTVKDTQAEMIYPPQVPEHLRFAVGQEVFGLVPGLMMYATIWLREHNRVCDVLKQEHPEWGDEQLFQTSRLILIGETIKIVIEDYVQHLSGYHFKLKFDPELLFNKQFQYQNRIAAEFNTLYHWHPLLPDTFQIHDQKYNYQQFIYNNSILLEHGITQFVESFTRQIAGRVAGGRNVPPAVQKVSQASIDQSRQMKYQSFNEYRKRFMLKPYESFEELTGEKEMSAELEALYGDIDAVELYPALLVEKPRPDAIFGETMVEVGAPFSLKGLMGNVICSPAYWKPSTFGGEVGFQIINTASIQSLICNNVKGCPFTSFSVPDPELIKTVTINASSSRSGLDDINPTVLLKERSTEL
Description: Percentage inhibition activity at a concentration of 10 uM against cyclooxygenase 2 with the compound dissolved in DMSO

DLD-1 [3] = assay: Inhibition of growth of DLD-1 cell line after 24+72 hours of exposure time with the compound dissolved in DMSO; format: functional, cell-based; details: Homo sapiens, DLD-1, 72 h
HT-29 [4] = assay: Inhibition of growth of HT-29 cell line after 24+72 hours of exposure time with the compound dissolved in DMSO; format: functional, cell-based; details: Homo sapiens, HT-29, 72 h
[5] = Inhibition of growth of HCT116 cell line after 24+72 hours of exposure time with the compound dissolved in DMSO; format: functional, cell-based; details: Homo sapiens, HCT-116, 72 h
DLD-1 [6] = assay: Inhibition of growth of DLD-1 cell line after 72 hours of exposure time with the compound dissolved in DMSO; format: functional, cell-based; details: Homo sapiens, DLD-1, 72 h
DLD-1 [7] = assay: Inhibition of growth of DLD-1 cell line after 96 hours of exposure time with the compound dissolved in DMSO; format: functional, cell-based; details: Homo sapiens, DLD-1, 96 h
[8] = Inhibition of growth of H630 cell line after 96 hours of exposure time with the compound dissolved in DMSO; format: functional, cell-based; details: Homo sapiens, NCI-H630, 96 h
HT-29 [9] = assay: Inhibition of growth of HT-29 cell line after 72+72 hours of exposure time with the compound dissolved in DMSO; format: functional, cell-based; details: Homo sapiens, HT-29, 72 h
[10] = Inhibition of growth of H630 cell line after 72 hours of exposure time with the compound dissolved in DMSO; format: functional, cell-based; details: Homo sapiens, NCI-H630, 72 h
HT-29 [11] = assay: Inhibition of growth of HT-29 cell line after 72 hours of exposure time with the compound dissolved in DMSO; format: functional, cell-based; details: Homo sapiens, HT-29, 72 h
HCT-8 [12] = assay: Inhibition of growth of HCT-8 cell line after 96 hours of exposure time with the compound dissolved in DMSO; format: functional, cell-based; details: Homo sapiens, HCT-8, 96 h
HCT-8 [13] = assay: Inhibition of growth of HCT-8 cell line after 72 hours of exposure time with the compound dissolved in DMSO; format: functional, cell-based; details: Homo sapiens, HCT-8, 72 h
[14] = Inhibition of growth of HCT116 cell line after 72+72 hours of exposure time with the compound dissolved in DMSO; format: functional, cell-based; details: Homo sapiens, HCT-116, 72 h
HT-29 [15] = assay: Inhibition of growth of HT-29 cell line after 96 hours of exposure time with the compound dissolved in DMSO; format: functional, cell-based; details: Homo sapiens, HT-29, 96 h
DLD-1 [16] = assay: Inhibition of growth of DLD-1 cell line after 72+72 hours of exposure time with the compound dissolved in DMSO; format: functional, cell-based; details: Homo sapiens, DLD-1, 72 h
HCT-116 = assay: Inhibition of growth of HCT116 cell line after 72 hours of exposure time with the compound dissolved in DMSO; format: functional, cell-based; details: Homo sapiens, HCT-116, 72 h
[17] = Inhibition of growth of HCT116 cell line after 96 hours of exposure time with the compound dissolved in DMSO; format: functional, cell-based; details: Homo sapiens, HCT-116, 96 h
[18] = molecular target: T3, Prostaglandin G/H synthase 2 (Homo sapiens, UniProt P35354); assay: In vitro inhibition activity against cyclooxygenase 2 with the compound dissolved in DMSO
T3 sequence (P35354 whole entry): T2 sequence (whole entry)

[19] = molecular target: T1, Prostaglandin G/H synthase 1; assay: In vitro inhibition activity against cyclooxygenase 1 with the compound dissolved in DMSO

T1 sequence (P23219 whole entry): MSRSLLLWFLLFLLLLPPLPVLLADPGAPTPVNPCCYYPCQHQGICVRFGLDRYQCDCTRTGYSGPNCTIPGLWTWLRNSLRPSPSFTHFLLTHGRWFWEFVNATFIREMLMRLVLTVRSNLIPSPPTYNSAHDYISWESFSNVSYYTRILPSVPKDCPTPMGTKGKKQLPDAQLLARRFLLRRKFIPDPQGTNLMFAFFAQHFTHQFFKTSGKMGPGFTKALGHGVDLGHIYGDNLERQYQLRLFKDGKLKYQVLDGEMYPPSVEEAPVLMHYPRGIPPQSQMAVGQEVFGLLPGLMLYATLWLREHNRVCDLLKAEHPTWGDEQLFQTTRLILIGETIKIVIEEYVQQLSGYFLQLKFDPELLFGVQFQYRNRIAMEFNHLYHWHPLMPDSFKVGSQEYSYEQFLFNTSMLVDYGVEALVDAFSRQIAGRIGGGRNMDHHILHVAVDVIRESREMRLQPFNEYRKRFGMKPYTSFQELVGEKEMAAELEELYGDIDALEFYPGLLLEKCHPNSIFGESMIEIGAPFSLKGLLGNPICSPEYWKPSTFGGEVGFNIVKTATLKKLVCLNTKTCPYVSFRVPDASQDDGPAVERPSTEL

| Structure (SMILES) | inhibition [1] [%] | inhibition [2] [%] | IC50 (DLD-1 [3]) [µM] | IC50 (HT-29 [4]) [µM] | IC50 [5] [µM] | IC50 (DLD-1 [6]) [µM] | IC50 (DLD-1 [7]) [µM] | IC50 [8] [µM] | IC50 (HT-29 [9]) [µM] | IC50 [10] [µM] | IC50 (HT-29 [11]) [µM] | IC50 (HCT-8 [12]) [µM] | IC50 (HCT-8 [13]) [µM] | IC50 [14] [µM] | IC50 (HT-29 [15]) [µM] | IC50 (DLD-1 [16]) [µM] | IC50 (HCT-116) [µM] | IC50 [17] [µM] | IC50 [18] [nM] | IC50 [19] [µM] |
| --- | --- | --- | --- | --- | --- | --- | --- | --- | --- | --- | --- | --- | --- | --- | --- | --- | --- | --- | --- | --- |
| CCCN1C(=O)CS/C1=N/c1ccccc1 | 8 | 0 | – | – | – | – | – | – | – | – | – | – | – | – | – | – | – | – | – | – |
| O=C1NC(=O)/C(=C/c2cccc(C(F)(F)F)c2)S1 | 0 | 0 | 40.1 | 71.7 | 91.7 | 37.4 | 17.8 | 83.2 | 31.4 | 97.6 | 38.8 | 82.2 | 100 | 36.8 | 59.7 | 31.4 | 48.8 | 45.5 | – | – |
| COc1ccc(C2SCC(=O)N2CCN2C(=O)CSC2c2ccc(OC)cc2)cc1 (stereo not given) | – | – | – | – | – | – | – | – | – | – | – | – | – | – | – | – | – | – | 1120 | 53.7 |
| CCCN1C(=O)/C(=C/c2cccc(OC)c2)S/C1=N/c1ccccc1 | 0 | 24 | > 100 | 92.8 | > 100 | > 100 | 13.1 | > 100 | 36.2 | > 100 | 64.1 | > 100 | > 100 | > 100 | 23.4 | > 100 | > 100 | 34.2 | – | – |
